Key:
[1] = molecular target: T1, wild-type E. coli DNA gyrase (Escherichia coli, UniProt P0AES4+P0AES6); assay: biochemical; conditions: relaxed pBR322 substrate, read-out: Supercoiling IC50
Experimental: (§1) Supercoiling reactions were carried out as described previously ([24]) with minor adjustments. A total of 500 ng of relaxed pBR322 plasmid was used as a substrate for each 30 μl reaction. The amount of DNA gyrase (A2B2) added was normalized by testing various dilutions of the stock (A2B2 containing 0.5 mg/ml of each subunit) without compound. The amount sufficient to supercoil 50% of the substrate was then used for the testing of compounds. See Supplementary Figure S1 for details. This ensured a limiting amount of enzyme for every mutant tested. The individual gyrase subunits were either prepared in the lab as described previously ([25]) or purchased from Inspiralis.

[2] = molecular target: E. coli DNA gyrase GyrA mutant EcS83L (Escherichia coli, UniProt P0AES4+P0AES6, S83L); assay: Supercoiling inhibition assay, GyrA EcS83L mutant gyrase; format: biochemical; conditions: for Resistance of EcS83L mutant enzyme in supercoiling inhibition: EcS83L compared to wt
Experimental: as §1
(§2) The activity of tricyclic and bicyclic IPYs (Figure 1) was tested in a supercoiling inhibition assay (Table 1) on wild-type (wt) E. coli DNA gyrase and GyrA mutants EcS83L (SaS84), EcD87A (SaE88) and EcD82N (SaD83). These residues are located in the ‘Quinolone-Resistance-Determining-Region’, frequently found mutated in resistant clinical isolates ([18],[35–38]). Based on the structures solved of FQs bound to DNA gyrase and topo IV, it has been established that both residues EcS83 and EcD87 are involved in a water–metal–ion bridge that is important for the stabilization of the ternary complex, explaining the resistance to FQs observed when these residues are mutated ([15–16],[23],[29],[39]).

[3] = molecular target: E. coli DNA gyrase GyrA mutant EcD87A (Escherichia coli, UniProt P0AES4+P0AES6, D87A); assay: Supercoiling inhibition assay, GyrA EcD87A mutant gyrase; format: biochemical
Experimental: as §1, §2

[4] = molecular target: E. coli DNA gyrase GyrA mutant EcD82N (Escherichia coli, UniProt P0AES4+P0AES6, D82N); assay: Supercoiling inhibition assay, GyrA EcD82N mutant gyrase; format: biochemical
Experimental: as §1, §2

[5] = molecular target: T1, wild-type E. coli DNA gyrase; format: biochemical; conditions: purified E. coli DNA gyrase, linear plasmid DNA
Experimental: (§3) A total of 500 ng of relaxed pBR322 plasmid was used as a substrate for each 30 μl reaction.

[6] = molecular target: T2, Escherichia coli wt gyrase (Escherichia coli, UniProt P0AES4+P0AES6); format: biochemical; conditions: 8 mM EDTA, no ATP; disappearance of linear double-strand cleavage
Experimental: as §3
Figure 6.

[7] = molecular target: T2, Escherichia coli wt gyrase; format: biochemical; conditions: 25°C, presence vs absence of ATP
Experimental: The reactions were carried out either in the presence or absence of ATP for both compounds.
The top panels show the results of cleavage assays with various times allowed for the formation of the cleavage complexes as indicated. The experiment was performed in the presence and the absence of ATP as indicated. […] Approximately 400 ng of A2B2Escherichia coli wt gyrase was used in each assay.

[8] = tested on: ΔTolC E. coli; parameters: method as in Jeannot et al. In revision in J Med Chem; conditions: ref Jeannot et al. In revision in J Med Chem; cited from earlier work

SMILES	IC50 [1] [µM]	IC50 [2] [µM]	Increase in supercoiling IC50 with EcS83L mutant compared to wt ([2]; EcS83L vs wild-type) [fold]	IC50 [3] [µM]	IC50 [4] [µM]	Level of double-stranded cleavage induced [5]	Resealing of stabilized cleavage by EDTA [6]	Effect of ATP on rate of appearance of linear DNA (cleavage) [7]	Antibacterial activity ranking on ΔTolC E. coli [8]	Resistance of EcS83L mutant enzyme in supercoiling inhibition [2]	Resistance of EcD87A mutant enzyme in supercoiling inhibition ([3]; EcD87A compared to wt)	Resistance of EcD82N mutant enzyme in supercoiling inhibition ([4]; EcD82N compared to wt)
N[C@H]1CCN(c2cc3c(cc2F)n2ccnc2c(=O)n3C2CC2)C1 [t1]	0.5	3.7	~7	0.5	9.4	comparable to those obtained with ciprofloxacin	slower	greatly stimulated	most active tricyclic IPY	–	–	–
O=C(Cc1ccccc1)Nc1ccc(-c2cn(-c3ccc(O)cc3)c(=O)c3nccn23)cc1 [b1, N-{4-[7-(4-hydroxyphenyl)-8-oxo-7,8-dihydroimidazo[1,2-a]pyrazin-5-yl]phenyl}-2-phenylacetamide]	2.6	1	–	–	–	–	–	–	–	improved activity toward the EcS83L mutant enzyme compared to the wt	–	–
N[C@H]1CCN(c2cc3c(cc2F)n2ncnc2c(=O)n3C2CC2)C1 [t2]	1.7	9.5	–	1.7	4 to 20	–	–	–	–	partial resistance	low to no resistance	high resistance
Cn1cc(-c2ccc(NC(=O)Cc3ccc(Cl)cc3)cc2)n2ccnc2c1=O [b2]	5.2	11	–	–	–	–	–	–	–	less active against EcS83L	–	–

— paper PMC5934680, “A new class of antibacterials, the imidazopyrazinones, reveal structural transitions involved in DNA gyrase poisoning and mechanisms of resistance” (Nucleic Acids Research, 2018)
